Assay results from patent US11076594B2, “Pyrazolone compound or salt thereof, preparation method therefor, herbicide composition and use thereof” (QINGDAO KINGAGROOT CHEMICAL COMPOUNDS CO., LTD., priority 2015, dated 2021).

How the values were obtained:
Type in all cases: in vivo
wheat [1] = experiment: post-emergence stage experiment, crop (Table 1); details: post-emergence spray at 4-5 leaf stage, 250 g/ha active ingredient with 450 kg/ha water, rated after 3 weeks in greenhouse
Method in brief: (§1)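 Fresh-weight-based growth control rate was assessed 3 weeks after spraying. Test compound, dissolved in acetone, with tween 80 added and diluted in water, was sprayed onto greenhouse-grown, pot-cultured weeds and crop plants at 4-5 leaves, 2-3 weeks post-sowing.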

flixweed = experiment: wheat field resistant broadleaf weed control, greenhouse spray at 4 leaf stage; design: key: Level 10: completely dead; Level 9: above 95% growth control rate; Level 8: above 90% growth control rate; Level 7: above 80% growth control rate; Level 6: above 70% growth control rate; Level 5: above 60% growth control rate; Level 4: above 50% growth control rate; Level 3: above 20% growth control rate; Level 2: 5%-20% growth control rate; Level 1: below 5% growth control rate; details: 250 g/ha of the active substance; 4 weeks after treatment; ALS inhibitor resistant
Description: (§2) The activity level standard of harmful plant destruction (i.e. growth control rate) is as follows:
(§3) The above described growth control rate is fresh weight control rate.
(§4) The seeds of alopecurus japonicas, flixweed, shepherd's purse, corn gromwell, chickweed, beckmannia syzigachne, and annual ryegrass and wheat seeds were put into a plastic pot loaded with soil, and then covered with 0.5-2 cm soil, the seeds were allowed to grow in good greenhouse environment. The test plants were treated at 4 leaf stage 2-3 weeks after sowing. The test compounds of the present invention were dissolved in acetone respectively, then added with methyl oleate emulsion and diluted by certain amount of water to certain concentration. The solution was sprayed to the plant with a sprayer. Then the plants were cultured for 4 weeks in greenhouse.

chickweed = experiment: as above; design: key: Level 10: completely dead; Level 9: above 95% growth control rate; Level 8: above 90% growth control rate; Level 7: above 80% growth control rate; Level 6: above 70% growth control rate; Level 5: above 60% growth control rate; Level 4: above 50% growth control rate; Level 3: above 20% growth control rate; Level 2: 5%-20% growth control rate; Level 1: below 5% growth control rate; details: 250 g/ha of the active substance; 4 weeks after treatment; ALS inhibitor resistant
Description: as §2, §3, §4

shepherd's purse = experiment: as above; design: key: Level 10: completely dead; Level 9: above 95% growth control rate; Level 8: above 90% growth control rate; Level 7: above 80% growth control rate; Level 6: above 70% growth control rate; Level 5: above 60% growth control rate; Level 4: above 50% growth control rate; Level 3: above 20% growth control rate; Level 2: 5%-20% growth control rate; Level 1: below 5% growth control rate; details: 250 g/ha of the active substance; 4 weeks after treatment; ALS inhibitor resistant
Description: as §2, §3, §4

corn gromwell = experiment: as above; design: key: Level 10: completely dead; Level 9: above 95% growth control rate; Level 8: above 90% growth control rate; Level 7: above 80% growth control rate; Level 6: above 70% growth control rate; Level 5: above 60% growth control rate; Level 4: above 50% growth control rate; Level 3: above 20% growth control rate; Level 2: 5%-20% growth control rate; Level 1: below 5% growth control rate; details: 250 g/ha of the active substance; 4 weeks after treatment; ALS inhibitor resistant
Description: as §2, §3, §4

bidens bipinnata = experiment: weed control effect in post-emergence stage (Table 1); design: key: Level 10: completely dead; Level 9: above 95% growth control rate; Level 8: above 90% growth control rate; Level 7: above 80% growth control rate; Level 6: above 70% growth control rate; Level 5: above 60% growth control rate; Level 4: above 50% growth control rate; Level 3: above 20% growth control rate; Level 2: 5%-20% growth control rate; Level 1: below 5% growth control rate; details: post-emergence spray at 4-5 leaf stage, 250 g/ha active ingredient with 450 kg/ha water, rated after 3 weeks in greenhouse
Method in brief: as §1

rorippa indica = experiment: as above; design: key: Level 10: completely dead; Level 9: above 95% growth control rate; Level 8: above 90% growth control rate; Level 7: above 80% growth control rate; Level 6: above 70% growth control rate; Level 5: above 60% growth control rate; Level 4: above 50% growth control rate; Level 3: above 20% growth control rate; Level 2: 5%-20% growth control rate; Level 1: below 5% growth control rate; details: post-emergence spray at 4-5 leaf stage, 250 g/ha active ingredient with 450 kg/ha water, rated after 3 weeks in greenhouse
Method in brief: as §1

foxtail = experiment: as above; design: key: Level 10: completely dead; Level 9: above 95% growth control rate; Level 8: above 90% growth control rate; Level 7: above 80% growth control rate; Level 6: above 70% growth control rate; Level 5: above 60% growth control rate; Level 4: above 50% growth control rate; Level 3: above 20% growth control rate; Level 2: 5%-20% growth control rate; Level 1: below 5% growth control rate; details: post-emergence spray at 4-5 leaf stage, 250 g/ha active ingredient with 450 kg/ha water, rated after 3 weeks in greenhouse
Method in brief: as §1

crab grass = experiment: as above; design: key: Level 10: completely dead; Level 9: above 95% growth control rate; Level 8: above 90% growth control rate; Level 7: above 80% growth control rate; Level 6: above 70% growth control rate; Level 5: above 60% growth control rate; Level 4: above 50% growth control rate; Level 3: above 20% growth control rate; Level 2: 5%-20% growth control rate; Level 1: below 5% growth control rate; details: post-emergence spray at 4-5 leaf stage, 250 g/ha active ingredient with 450 kg/ha water, rated after 3 weeks in greenhouse
Method in brief: as §1

echinochloa = experiment: as above; design: key: Level 10: completely dead; Level 9: above 95% growth control rate; Level 8: above 90% growth control rate; Level 7: above 80% growth control rate; Level 6: above 70% growth control rate; Level 5: above 60% growth control rate; Level 4: above 50% growth control rate; Level 3: above 20% growth control rate; Level 2: 5%-20% growth control rate; Level 1: below 5% growth control rate; details: post-emergence spray at 4-5 leaf stage, 250 g/ha active ingredient with 450 kg/ha water, rated after 3 weeks in greenhouse
Method in brief: as §1

Indian mallow = experiment: as above; design: key: Level 10: completely dead; Level 9: above 95% growth control rate; Level 8: above 90% growth control rate; Level 7: above 80% growth control rate; Level 6: above 70% growth control rate; Level 5: above 60% growth control rate; Level 4: above 50% growth control rate; Level 3: above 20% growth control rate; Level 2: 5%-20% growth control rate; Level 1: below 5% growth control rate; details: post-emergence spray at 4-5 leaf stage, 250 g/ha active ingredient with 450 kg/ha water, rated after 3 weeks in greenhouse
Method in brief: as §1

rice = experiment: post-emergence stage experiment, crop (Table 1); details: post-emergence spray at 4-5 leaf stage, 250 g/ha active ingredient with 450 kg/ha water, rated after 3 weeks in greenhouse
Method in brief: as §1

wheat [2] = experiment: wheat field test, crop selectivity, greenhouse spray at 4 leaf stage; details: 250 g/ha of the active substance; 4 weeks after treatment
Description: as §2, §3, §4

corn = experiment: post-emergence stage experiment, crop (Table 1); details: post-emergence spray at 4-5 leaf stage, 250 g/ha active ingredient with 450 kg/ha water, rated after 3 weeks in greenhouse
Method in brief: as §1

| Compound | effect on crop, Wheat (level) (wheat [1]) | flixweed weed controlling effect (activity level) (flixweed) | chickweed weed controlling effect (activity level) (chickweed) | shepherd's purse weed controlling effect (activity level) (shepherd's purse) | corn gromwell weed controlling effect (activity level) (corn gromwell) | weed control effect, Bidens bipinnata (level) (bidens bipinnata) | weed control effect, Rorippa indica (level) (rorippa indica) | weed control effect, Green foxtail (level) (foxtail) | weed control effect, Crab grass (level) (crab grass) | weed control effect, Echinochloa (level) (echinochloa) | weed control effect, Indian mallow (level) (Indian mallow) | effect on crop, Rice (level) (rice) | Wheat (activity level, crop damage) (wheat [2]) | effect on crop, Corn (level) (corn) |
| --- | --- | --- | --- | --- | --- | --- | --- | --- | --- | --- | --- | --- | --- | --- |
| CC(=O)N(CC(F)F)c1c(C(F)(F)F)ccc(C(=O)c2c(C)nn(C)c2O)c1Cl [Compound 005] | 0 | 10 | 10 | 10 | 10 | 10 | 10 | 5 (Level 5: above 60% growth control rate) | 2 (Level 2: 5%-20% growth control rate) | 10 | 10 | 7 (Level 7: above 80% growth control rate) | 0 | – |
| Cn1cc(C(=O)Oc2c(C(=O)c3ccc(C(F)(F)F)c(N4CCCC4=O)c3Cl)c(C3CC3)nn2C)cn1 [Compound 028] | 0 | 10 | 10 | 10 | 10 | 7 (Level 7: above 80% growth control rate) | 10 | 1 (Level 1: below 5% growth control rate) | 4 (Level 4: above 50% growth control rate) | 5 (Level 5: above 60% growth control rate) | 10 | 1 (Level 1: below 5% growth control rate) | 0 | 1 (Level 1: below 5% growth control rate) |
| CCOc1c(C(=O)Oc2c(C(=O)c3ccc(C(F)(F)F)c(N4CCCCCC4=O)c3Cl)cnn2C)cnn1C [Compound 051] | 0 | 10 | 10 | 10 | 10 | 2 (Level 2: 5%-20% growth control rate) | 10 | 0 | 5 (Level 5: above 60% growth control rate) | 6 (Level 6: above 70% growth control rate) | 10 | 1 (Level 1: below 5% growth control rate) | 0 | 2 (Level 2: 5%-20% growth control rate) |
| Cc1nn(C)cc1C(=O)Oc1c(C(=O)c2ccc(C(F)(F)F)c(-n3cccn3)c2Cl)cnn1C [Compound 067] | 0 | 10 | 10 | 10 | 10 | – | 10 | 10 | 7 (Level 7: above 80% growth control rate) | 7 (Level 7: above 80% growth control rate) | 10 | 3 (Level 3: above 20% growth control rate) | 0 | 3 (Level 3: above 20% growth control rate) |
| Cc1nn(C)cc1C(=O)Oc1c(C(=O)c2ccc(C(F)(F)F)c(-n3cccn3)c2Cl)c(C)nn1C [Compound 072] | 0 | 10 | 10 | 10 | 10 | – | 10 | 10 | 4 (Level 4: above 50% growth control rate) | 6 (Level 6: above 70% growth control rate) | 10 | 4 (Level 4: above 50% growth control rate) | 0 | 3 (Level 3: above 20% growth control rate) |
| Cc1cnn(-c2c(C(F)(F)F)ccc(C(=O)c3c(C)nn(C)c3OC(=O)c3cn(C)nc3C)c2Cl)c1 [Compound 088] | 0 | 10 | 10 | 10 | 10 | 4 (Level 4: above 50% growth control rate) | 10 | 10 | 9 (Level 9: above 95% growth control rate) | 10 | 10 | – | 0 | 0 |
| Cc1cnn(-c2c(C(F)(F)F)ccc(C(=O)c3c(C4CC4)nn(C)c3OC(=O)c3cn(C)nc3C)c2Cl)c1 [Compound 090] | 0 | 10 | 10 | 10 | 10 | – | 10 | 2 (Level 2: 5%-20% growth control rate) | 1 (Level 1: below 5% growth control rate) | 6 (Level 6: above 70% growth control rate) | 10 | 2 (Level 2: 5%-20% growth control rate) | 0 | 1 (Level 1: below 5% growth control rate) |
